Source: PubChem BioAssay AID248 (DTP/NCI, 2004)
Inconclusive results and toxic doses are left out. Rule as the data show it: active = T/C of 150% or more; inactive = T/C below 125%.

Test system: L1210 leukemia ip in BDF1 mice, survival T/C
Experiment: NCI In Vivo Anticancer Drug Screen. Data for tumor model L1210 Leukemia (intraperitoneal) in B6D2F1 (BDF1) mice
Details: endpoint: mean survival time, higher = longer survival
Procedure, shortened: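 Mice bearing the transplanted tumor received compound or vehicle. Survival of the treated group was divided by that of the vehicle-treated control group to give the ratio.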

[1] = dose: 100.0 mg/kg/injection, schedule: Q04DX003 (ip), vehicle: saline with Tween-80
[2] = dose: 200.0 mg/kg/injection, schedule: Q04DX003 (ip), vehicle: saline with Tween-80
[3] = dose: 400.0 mg/kg/injection, schedule: Q04DX003 (ip), vehicle: saline with Tween-80
[4] = dose: 50.0 mg/kg/injection, schedule: Q04DX002 (ip), vehicle: saline
[5] = dose: 100.0 mg/kg/injection, schedule: Q04DX002 (ip), vehicle: saline
[6] = dose: 200.0 mg/kg/injection, schedule: Q04DX002 (ip), vehicle: saline
[7] = dose: 100.0 mg/kg/injection, schedule: Q04DX003 (ip), vehicle: Klucel (hydroxypropylcellulose) (HPC)
[8] = dose: 200.0 mg/kg/injection, schedule: Q04DX003 (ip), vehicle: Klucel (hydroxypropylcellulose) (HPC)
[9] = dose: 400.0 mg/kg/injection, schedule: Q04DX003 (ip), vehicle: Klucel (hydroxypropylcellulose) (HPC)
[10] = dose: 100.0 mg/kg/injection, schedule: Q01DX001 (ip), vehicle: carboxymethylcellulose (CMC)
[11] = dose: 200.0 mg/kg/injection, schedule: Q01DX001 (ip), vehicle: carboxymethylcellulose (CMC)
[12] = dose: 400.0 mg/kg/injection, schedule: Q01DX001 (ip), vehicle: carboxymethylcellulose (CMC)

Measured: T/C

CC(=O)OCC(O)C(O)C(O)C(O)CO (configuration not stated)
inactive: [1] 91 % of control | [2] 94 % of control | [3] 91 % of control

C=CCSC(=S)N(C)C
inactive: dose: 25.0 mg/kg/injection, schedule: Q04DX002 (ip), vehicle: saline 101 % of control | [4] 89 % of control

Cc1nonc1C(=O)O
inactive: [5] 102 % of control | [6] 87 % of control | dose: 400.0 mg/kg/injection, schedule: Q04DX002 (ip), vehicle: saline 98 % of control

Cc1nnn(N/N=C(\C(=O)Oc2ccccc2)c2ccccc2)c1C
inactive: [7] 100 % of control | [8] 103 % of control | [9] 96 % of control

CC(=O)Nc1ccc(CCCCc2cccc(C(=N)N)c2)cc1
inactive: dose: 12.5 mg/kg/injection, schedule: Q01DX009 (ip), vehicle: saline 101 % of control | dose: 12.5 mg/kg/injection, schedule: Q04DX003 (ip), vehicle: Klucel (hydroxypropylcellulose) (HPC) 102 % of control | dose: 25.0 mg/kg/injection, schedule: Q01DX009 (ip), vehicle: saline 101 % of control | dose: 25.0 mg/kg/injection, schedule: Q04DX003 (ip), vehicle: Klucel (hydroxypropylcellulose) (HPC) 100 % of control | dose: 50.0 mg/kg/injection, schedule: Q01DX009 (ip), vehicle: saline 95 % of control | dose: 50.0 mg/kg/injection, schedule: Q04DX003 (ip), vehicle: Klucel (hydroxypropylcellulose) (HPC) 102 % of control

CCCCCCCCCCCCCCCCS(=O)(=O)N/N=C/c1ccc(Cl)cc1Cl
inactive: [10] 98 % of control | [11] 101 % of control | [12] 107 % of control

CC1=CN(C)C(=O)CC1
inactive: dose: 100.0 mg/kg/injection, schedule: Q01DX001 (ip), vehicle: acetone 96 % of control | dose: 200.0 mg/kg/injection, schedule: Q01DX001 (ip), vehicle: acetone 96 % of control | dose: 400.0 mg/kg/injection, schedule: Q01DX001 (ip), vehicle: acetone 104 % of control

Cc1ccc(C(=O)OCC2OC(OC3CC(OC(=O)c4ccc(C)cc4)C(COC(=O)c4ccc(C)cc4)O3)CC2OC(=O)c2ccc(C)cc2)cc1 (configuration not stated)
inactive: dose: 50.0 mg/kg/injection, schedule: Q01DX001 (ip), vehicle: carboxymethylcellulose (CMC) 101 % of control | [10] 87 % of control | [11] 101 % of control | [12] 97 % of control

Cc1cc2nc3[nH]c(=O)c4c(n3c2cc1C)CCC4
inactive: [4] 87 % of control | [5] 108 % of control | [6] 112 % of control

CCCCSP(=O)(SCCCC)N1CCCCC1
inactive: dose: 25.0 mg/kg/injection, schedule: Q04DX002 (ip), vehicle: saline with Tween-80 108 % of control | dose: 50.0 mg/kg/injection, schedule: Q04DX002 (ip), vehicle: saline with Tween-80 89 % of control | dose: 100.0 mg/kg/injection, schedule: Q04DX002 (ip), vehicle: saline with Tween-80 101 % of control

COc1cccc(C(=O)C(CCC#N)c2ccccc2)c1 (configuration not stated)
inactive: dose: 100.0 mg/kg/injection, schedule: Q01DX009 (ip), vehicle: Klucel (hydroxypropylcellulose) (HPC) 98 % of control | [7] 106 % of control | dose: 200.0 mg/kg/injection, schedule: Q01DX009 (ip), vehicle: Klucel (hydroxypropylcellulose) (HPC) 98 % of control | [8] 100 % of control | dose: 400.0 mg/kg/injection, schedule: Q01DX009 (ip), vehicle: Klucel (hydroxypropylcellulose) (HPC) 96 % of control | [9] 95 % of control

C[C@]12CCC(=O)C=C1CC[C@@H]1[C@@H]2C(=O)C[C@]2(C)C3=CC(=O)O[C@H]3C[C@@H]12
inactive: dose: 25.0 mg/kg/injection, schedule: Q01DX015 (sc), vehicle: steriod suspending solution 117 % of control | dose: 50.0 mg/kg/injection, schedule: Q01DX015 (sc), vehicle: steriod suspending solution 102 % of control | dose: 100.0 mg/kg/injection, schedule: Q01DX001 (sc), vehicle: steriod suspending solution 94 % of control | dose: 100.0 mg/kg/injection, schedule: Q01DX015 (sc), vehicle: steriod suspending solution 102 % of control | dose: 200.0 mg/kg/injection, schedule: Q01DX001 (sc), vehicle: steriod suspending solution 103 % of control | dose: 200.0 mg/kg/injection, schedule: Q01DX015 (sc), vehicle: steriod suspending solution 91 % of control | dose: 400.0 mg/kg/injection, schedule: Q01DX001 (sc), vehicle: steriod suspending solution 103 % of control | dose: 400.0 mg/kg/injection, schedule: Q01DX015 (sc), vehicle: steriod suspending solution 97 % of control | dose: 600.0 mg/kg/injection, schedule: Q01DX015 (sc), vehicle: steriod suspending solution 95 % of control

O=C(Nc1ccccc1F)Nc1cccc2ccc(O)cc12
inactive: dose: 100.0 mg/kg/injection, schedule: Q01DX009 (ip), vehicle: alcohol 95 % of control | dose: 200.0 mg/kg/injection, schedule: Q01DX009 (ip), vehicle: alcohol 98 % of control | dose: 400.0 mg/kg/injection, schedule: Q01DX009 (ip), vehicle: alcohol 93 % of control

CN(C)Cc1c[nH]c2ncccc12
inactive: dose: 6.25 mg/kg/injection, schedule: Q04DX003 (ip), vehicle: saline with Tween-80 98 % of control | dose: 12.5 mg/kg/injection, schedule: Q04DX003 (ip), vehicle: saline with Tween-80 96 % of control | dose: 25.0 mg/kg/injection, schedule: Q04DX003 (ip), vehicle: saline with Tween-80 102 % of control

COc1ccc(/C2=C/CCCCCC2)cc1
inactive: dose: 50.0 mg/kg/injection, schedule: Q01DX009 (ip), vehicle: acetone 87 % of control | dose: 100.0 mg/kg/injection, schedule: Q01DX009 (ip), vehicle: acetone 92 % of control | dose: 100.0 mg/kg/injection, schedule: Q04DX003 (ip), vehicle: acetone 96 % of control | dose: 200.0 mg/kg/injection, schedule: Q01DX009 (ip), vehicle: acetone 95 % of control | dose: 200.0 mg/kg/injection, schedule: Q04DX003 (ip), vehicle: acetone 103 % of control | dose: 400.0 mg/kg/injection, schedule: Q04DX003 (ip), vehicle: acetone 101 % of control

O=C1/C(=C/c2ccccc2)Cc2ccccc21
inactive: dose: 100.0 mg/kg/injection, schedule: Q01DX009 (ip), vehicle: saline with Tween-80 95 % of control | [1] 101 % of control | dose: 200.0 mg/kg/injection, schedule: Q01DX009 (ip), vehicle: saline with Tween-80 95 % of control | [2] 95 % of control | dose: 400.0 mg/kg/injection, schedule: Q01DX009 (ip), vehicle: saline with Tween-80 95 % of control | [3] 109 % of control

Cc1c(C)c([N+](=O)[O-])c(I)c(C)c1[N+](=O)[O-]
inactive: dose: 75.0 mg/kg/injection, schedule: Q01DX009 (ip), vehicle: Klucel (hydroxypropylcellulose) (HPC) 98 % of control | dose: 75.0 mg/kg/injection, schedule: Q04DX003 (ip), vehicle: Klucel (hydroxypropylcellulose) (HPC) 102 % of control | dose: 150.0 mg/kg/injection, schedule: Q01DX009 (ip), vehicle: Klucel (hydroxypropylcellulose) (HPC) 98 % of control | dose: 150.0 mg/kg/injection, schedule: Q04DX003 (ip), vehicle: Klucel (hydroxypropylcellulose) (HPC) 102 % of control | dose: 300.0 mg/kg/injection, schedule: Q01DX009 (ip), vehicle: Klucel (hydroxypropylcellulose) (HPC) 97 % of control | dose: 300.0 mg/kg/injection, schedule: Q04DX003 (ip), vehicle: Klucel (hydroxypropylcellulose) (HPC) 98 % of control
